Experimental data reported in patent US8568763B2, “Compositions and coatings for delivery of therapeutic agents” (The University of Tennessee Research Foundation, priority 2004, dated 2013).

What was measured:
in vivo = conditions: pig
Experimental: Preimplantation and postexplantation grafts, blood and tissues were sent to the HPLC Drug Monitoring Laboratory at the University of Texas Medical School at Houston, (6431 Fannin, Suite 6.233, Houston Tex. 77030) for rapamycin level quantification. Analyses were performed using HPLC/UV assays developed by Dr Kimberly L. Napoli, the director of the laboratory (Napoli et al., “Distribution of Sirolimus in Rat Tissue,” Clin. Biochem. 30:135-42 (1997), which is hereby incorporated by reference in its entirety). Whole blood was collected on the first three postoperative days and at euthanasia to quantitate systemic exposure to rapamycin. To confirm elution of rapamycin from the ePTFE and deposition of drug in the native arterial wall, explanted grafts and adjacent iliac artery were snap frozen in liquid nitrogen. The tissues were packaged on dry ice and sent for rapamycin quantification. The kinetics of elution were extrapolated by sacrificing nine animals (n=3 per time point) on postoperative day 7, 14 and 28. These animals were separate from the twenty-two animals used to evaluate for changes in neointimal hyperplasia.
Similar drug levels were detected despite sterilization. Similarly, the rapamycin fraction was detected 18 minutes after instilling the sample onto the HPLC column irrespective of sterilization. […] Levels decreased from 1000 μg preimplatation to 26.7 μg at one week post explantation. Drug (2.9 μg/gm) was detected in the adjacent arterial wall on postoperative day 7 and persisted until euthanasia.

[1] = 90 days, rapamycin-eluting stents, Carter et al; cited from earlier work
[2] = blood of patients prophylaxed against kidney transplant rejection; cited from earlier work

concentration at 1 day (in vivo; mongrel): 9.3 ± 0.2 ng/mL
concentration at 2 day (in vivo; mongrel): 2 ± 0.1 ng/mL
concentration at 3 day (in vivo; mongrel): 1.9 ± 0.2 ng/mL
Rapamycin level in artery (in vivo; mongrel, 7 day): 2.9 ± 0.8 μg/gm
Rapamycin level in graft (in vivo; mongrel, 14 day): 12.8 ± 5.0 µg
Rapamycin level in graft (in vivo; mongrel, 28 day): 0.005 ± 0.001 µg
Detection of rapamycin in blood (in vivo): not detectable
concentration at 7 day (in vivo): 2900 ng/g
concentration at 28 day (in vivo): 25 ng/g
SMILES: CO[C@H]1C[C@@H]2CC[C@@H](C)[C@@](O)(O2)C(=O)C(=O)N2CCCC[C@H]2C(=O)O[C@H]([C@H](C)C[C@@H]2CC[C@@H](O)[C@H](OC)C2)CC(=O)[C@H](C)/C=C(\C)[C@@H](O)[C@@H](OC)C(=O)[C@H](C)C[C@H](C)/C=C/C=C/C=C/1C [Rapamycin, rapamycin]
Elution of rapamycin off grafts (in vivo): majority of rapamycin eluted off grafts by one week
Rapamycin in the arterial wall [1]: 0.32 ng/mg
current therapeutic rapamycin level [2]: 8 to 17 ng/mL
